# How the values were obtained:
# [1] = target: T1, human α5β3γ2 GABAARs in mouse L(tk−) cells (Homo sapiens, UniProt P18507+P31644); test: In vitro electrophysiological recording assay (α5-GABAAR relative efficacy), QPatch; assay type: cell-based; conditions: GABA EC10-20
# T1 construct: expressed in transfected cells; host or cells: mouse L(tk−) cells, dexamethasone-inducible vector pMSGneo
# Text: Mouse L(tk^−) cells stably expressing human α1β3γ2, α2β3γ2, α3β3γ2, α5β3γ2 GABAARs generated by transfection of the individual subunits in the dexamethasone-inducible expression vector pMSGneo in mouse L(tk^−) cells (Hadingham et al., 1993, Mol. Pharmacol. 43:970-975 and 1993, Mol. Pharmacol. 44:1211-1218) were used for binding and functional assays. For certain compounds, HEK293 cells stable expressing the human α1β3γ2L, α2β3γ2L, α3β3γ2L and α5β3γ2L GABAA receptors were used to evaluate their functional effects in a SyncroPatch electrophysiology assay.
# For QPatch electrophysiology testing, 1 μM dexamethasone was added to the culture medium of L(tk^−) cells 24 hours before the recordings were performed. Cells were typically used for electrophysiology experiments 72-96 hours after splitting.
# The efficacy of modulators was evaluated using either the automated patch-clamp platform QPatch16 (Sophion, Copenhagen, Denmark) or the SyncroPatch 384i (Nanion Technologies, Germany). Cells were harvested from flasks by enzymatic dissociation and re-suspended in serum-free medium.
# For QPatch recordings, all experiments were carried out at room temperature (20-22° C.) using a standard whole cell procedure and physiological solutions. Gigaseals were formed upon execution of a combined suction/voltage protocol with subsequent increased suction leading to the whole-cell configuration. The currents recorded were acquired at 1 KHz and filtered at 0.3 KHz using a Bessel filter. Whole-cell currents were measured at a holding potential of −65 mV.
# For QPatch recordings, the extracellular solution contained of (in mM): 145 NaCl, 4 KCl, 1 MgCl2, 2CaCl2, 10 HEPES, 10 D-glucose (pH 7.4), and the intracellular solution consisted of (in mM): 96 KCl, 28 CsCl, 25 KOH, 4.3 CaCl2), 1.4 MgCl2, 10 EGTA, HEPES, 3 MgATP (pH 7.2). The osmolarities of the extracellular and intracellular solutions were 305 and 295 mOsm respectively.
# The effects of modulators were evaluated in the presence of a submaximal GABA concentration, giving typically 10-20% activation (GABA EC10-20) of the response elicited by a saturating GABA concentration. For QPatch recordings, to check and ensure baseline current stability before compound addition, five consecutive applications of GABA EC10-20 alone (each application with a 2 s duration, separated by minimum 1 min wash off periods) were performed before compound addition. The test compound was applied using the pipetting system of the QPatch system 1 min at least prior to co-application with GABA EC10-20. For SyncroPatch recordings, GABA EC20 alone was applied three times (1 s long applications, with wash steps in-between) before compound addition. This was followed by a 1-2 min pre-incubation with the test compound and then re-application of GABA EC10-20 in the presence of the compound. Finally, following a further wash step, a saturating concentration of GABA was applied, allowing the accurate evaluation for each cell of the percentage baseline activation elicited by the submaximal GABA applied.
# The compounds were first dissolved in DMSO as a 10 mM stock and then further diluted to the testing concentrations so that the final DMSO concentration in the extracellular recording solution was kept constant at 0.1% for the QPatch recordings, or 0.2% for the SyncroPatch recordings.
# The % efficacy of modulators was determined from the GABA elicited currents recorded in the presence and absence of the test compound, using the formula:
# [((compound peak current−leak)−(GABA peak current−leak))/(GABA peak current−leak)]*100,
# where ‘leak’ is the leak baseline current at −65 mV, ‘compound peak current’ is the current elicited by co-application of compound and GABA, and ‘GABA peak current’ is the current elicited by GABA alone during the 5th GABA application. The results were presented as ‘relative efficacy’ for each compound generally at a concentration equal or higher than 100 times their determined Ki. […]
# [2] = target: T2, human recombinant GABAAR containing α5β3γ2 subunits (benzodiazepine site) (Homo sapiens, UniProt P18507+P31644); test: In vitro radioligand binding assay (α5-GABAAR Ki); conditions: inhibition of [3H]Ro15-1788 binding, membranes of L(tk−) cells expressing human α5β3γ2; read-out: α5-GABAAR Ki
# T2 construct: expressed in transfected cells; host or cells: mouse L(tk−) cells, dexamethasone-inducible vector pMSGneo
# T2 sequence (P31644 32-462): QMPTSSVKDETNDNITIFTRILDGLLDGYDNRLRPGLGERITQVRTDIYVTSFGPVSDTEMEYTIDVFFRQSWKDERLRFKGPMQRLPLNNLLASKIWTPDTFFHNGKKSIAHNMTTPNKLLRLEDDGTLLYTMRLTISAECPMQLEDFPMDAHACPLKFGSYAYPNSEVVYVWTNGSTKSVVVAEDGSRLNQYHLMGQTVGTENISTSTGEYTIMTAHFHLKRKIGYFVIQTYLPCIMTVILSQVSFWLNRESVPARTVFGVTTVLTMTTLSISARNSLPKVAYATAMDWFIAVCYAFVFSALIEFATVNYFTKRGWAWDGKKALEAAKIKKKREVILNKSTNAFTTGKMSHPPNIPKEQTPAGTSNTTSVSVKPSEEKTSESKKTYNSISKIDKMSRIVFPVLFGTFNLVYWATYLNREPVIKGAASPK
# T2 sequence (P28472 26-473 partner): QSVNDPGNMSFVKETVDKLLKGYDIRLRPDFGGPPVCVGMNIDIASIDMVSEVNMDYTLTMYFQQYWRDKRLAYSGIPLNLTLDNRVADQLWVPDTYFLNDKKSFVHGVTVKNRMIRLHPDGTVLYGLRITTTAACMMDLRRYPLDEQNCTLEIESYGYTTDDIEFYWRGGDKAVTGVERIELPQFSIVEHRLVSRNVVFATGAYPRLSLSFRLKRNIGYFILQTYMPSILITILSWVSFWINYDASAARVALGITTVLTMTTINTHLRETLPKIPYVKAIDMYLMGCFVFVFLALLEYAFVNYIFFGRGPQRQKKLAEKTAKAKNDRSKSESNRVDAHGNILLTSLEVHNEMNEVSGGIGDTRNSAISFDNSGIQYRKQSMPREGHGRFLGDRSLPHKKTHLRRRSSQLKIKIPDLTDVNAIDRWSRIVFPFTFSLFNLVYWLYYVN
# T2 sequence (P18507 40-475): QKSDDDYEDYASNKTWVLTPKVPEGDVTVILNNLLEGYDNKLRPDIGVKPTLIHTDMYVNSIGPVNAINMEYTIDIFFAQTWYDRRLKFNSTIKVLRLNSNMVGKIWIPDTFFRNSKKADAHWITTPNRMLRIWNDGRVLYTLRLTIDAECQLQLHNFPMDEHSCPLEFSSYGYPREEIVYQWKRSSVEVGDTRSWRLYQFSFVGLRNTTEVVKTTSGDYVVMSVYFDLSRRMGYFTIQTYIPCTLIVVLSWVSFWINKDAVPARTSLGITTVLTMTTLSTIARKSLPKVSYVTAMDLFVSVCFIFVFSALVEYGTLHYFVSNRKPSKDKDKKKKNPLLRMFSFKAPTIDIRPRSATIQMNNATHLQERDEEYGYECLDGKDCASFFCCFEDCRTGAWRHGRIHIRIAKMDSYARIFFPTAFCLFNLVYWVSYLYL
# Procedure, shortened: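 Membranes from mouse L(tk^−) cells stably expressing human α5β3γ2 GABAAR incubated 1 h at 4° C with 4 nM [^3H]Ro15-1788 and test compound; nonspecific binding with 1 μM TP003. Filter-bound radioactivity counted; Ki from IC50 by Cheng-Prusoff using measured Kd.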
# T1 sequence (P31644 32-462): as the sequence (P31644 32-462) above
# T1 sequence (P28472 26-473 partner): as the sequence (P28472 26-473 partner) above
# T1 sequence (P18507 40-475): as the sequence (P18507 40-475) above
SMILES,"α5-GABAAR Relative Efficacy (to DMCM), Qpatch ([1]; Conc 1 μM)",Ki [2] [nM],"α5-GABAAR Relative Efficacy (to DMCM), Qpatch ([1]; Conc 0.3 μM)","α5-GABAAR Relative Efficacy (to DMCM), Qpatch ([1]; Conc 3 μM)","α5-GABAAR Relative Efficacy (to DMCM), Qpatch ([1]; Conc 0.1 μM)"
"COc1nc(-c2cn[nH]c2)ccc1NC(=O)c1c(-c2ccccc2)noc1C [Example 26, N-[2-Methoxy-6-(1H-pyrazol-4-yl)-3-pyridyl]-5-methyl-3-phenyl-isoxazole-4-carboxamide]",−0.68,8,,,
"COc1nc(-c2cnn(C3CCCCO3)n2)ccc1NC(=O)c1c(-c2ccccc2)noc1C (centres unmarked) [Example 84, N-(2-Methoxy-6-(2-(tetrahydro-2H-pyran-2-yl)-2H-1,2,3-triazol-4-yl)pyridin-3-yl)-5-methyl-3-phenylisoxazole-4-carboxamide]",,10.7,,−0.51,
"CCOc1ncc(-c2ccc(NC(=O)c3c(-c4ccccc4)noc3C)c(OC)n2)cn1 [Example 48, N-[6-(2-Ethoxypyrimidin-5-yl)-2-methoxy-3-pyridyl]-5-methyl-3-phenyl-isoxazole-4-carboxamide]",,2.7,−0.90,,
"COc1nc(-n2cnc3c2CCNC3)ccc1NC(=O)c1c(-c2ccccc2)noc1C.Cl [Example 178, N-[2-methoxy-6-(4,5,6,7-tetrahydroimidazo[4,5-c]pyridin-1-yl)-3-pyridyl]-5-methyl-3-phenyl-isoxazole-4-carboxamide hydrochloride]",,2,−0.62,,
"COc1nc(-n2ccnc2)cnc1NC(=O)c1c(-c2ccccc2)noc1C [Example 44, N-(5-Imidazol-1-yl-3-methoxy-pyrazin-2-yl)-5-methyl-3-phenyl-isoxazole-4-carboxamide]",−0.69,3.6,,,
"CCOc1ncc(-c2cnc(NC(=O)c3c(-c4ccccc4)noc3C)c(OC)n2)cn1 [Example 142, N-[5-(2-Ethoxypyrimidin-5-yl)-3-methoxy-pyrazin-2-yl]-5-methyl-3-phenyl-isoxazole-4-carboxamide]",,2.9,−0.85,,
"COc1nc(-c2cncc(N)c2)ccc1NC(=O)c1c(-c2ccccc2)noc1C [Example 11, N-[6-(5-Amino-3-pyridyl)-2-methoxy-3-pyridyl]-5-methyl-3-phenyl-isoxazole-4-carboxamide]",,2.9,−0.84,,
"COc1nc(-c2ccn3nc(N(C)C)nc3c2)ccc1NC(=O)c1c(-c2ccccc2)noc1C.Cl [Example 131, N-[6-[2-(Dimethylamino)-[1,2,4]triazolo[1,5-a]pyridin-7-yl]-2-methoxy-3-pyridyl]-5-methyl-3-phenyl-isoxazole-4-carboxamide hydrochloride]",−0.67,9.8,,,
"COc1cc(-c2cncnc2)ccc1NC(=O)c1c(-c2ccccc2)noc1C [Example 13, N-(2-Methoxy-4-pyrimidin-5-yl-phenyl)-5-methyl-3-phenyl-isoxazole-4-carboxamide]",−0.85,3.6,,,
"COc1nc(-c2cncn2C)ccc1NC(=O)c1c(-c2ccccc2)noc1C [Example 132, N-[2-Methoxy-6-(3-methylimidazol-4-yl)-3-pyridyl]-5-methyl-3-phenyl-isoxazole-4-carboxamide]",−0.52,4,,,
"COc1cc(-c2cn[nH]c2)cnc1NC(=O)c1c(-c2ccccc2)noc1C [Example 18, N-[3-Methoxy-5-(1H-pyrazol-4-yl)-2-pyridyl]-5-methyl-3-phenyl-isoxazole-4-carboxamide]",,2.8,−0.61,,
"COc1nc(-c2cnn(C)c2)cnc1NC(=O)c1c(-c2ccccc2)noc1C [Example 19, N-[3-Methoxy-5-(1-methylpyrazol-4-yl)pyrazin-2-yl]-5-methyl-3-phenyl-isoxazole-4-carboxamide]",−0.86,4.3,,,

# More lines, in order of falling Ki [2], values ahead:
"α5-GABAAR Relative Efficacy (to DMCM), Qpatch ([1]; Conc 1 μM)",Ki [2] [nM],"α5-GABAAR Relative Efficacy (to DMCM), Qpatch ([1]; Conc 0.3 μM)","α5-GABAAR Relative Efficacy (to DMCM), Qpatch ([1]; Conc 3 μM)","α5-GABAAR Relative Efficacy (to DMCM), Qpatch ([1]; Conc 0.1 μM)",SMILES
,2.4,−0.46,,,"COc1nc(-c2ccnn2C)ccc1NC(=O)c1c(-c2ccccc2)noc1C [Example 23, N-[2-Methoxy-6-(2-methylpyrazol-3-yl)-3-pyridyl]-5-methyl-3-phenyl-isoxazole-4-carboxamide]"
,1.9,−0.61,,,"COc1nc(-n2cnnc2)ccc1NC(=O)c1c(-c2ccccc2)noc1C [Example 62, N-[2-Methoxy-6-(1,2,4-triazol-4-yl)-3-pyridyl]-5-methyl-3-phenyl-isoxazole-4-carboxamide]"
,1.9,−0.90,,,"COc1nc(-n2cnc(C#N)c2)ccc1NC(=O)c1c(-c2ccccc2)noc1C [Example 139, N-[6-(4-Cyanoimidazol-1-yl)-2-methoxy-3-pyridyl]-5-methyl-3-phenyl-isoxazole-4-carboxamide]"
,1.9,−0.52,,,"COc1nc(-c2ccc3nncn3c2)ccc1NC(=O)c1c(-c2ccccc2)noc1C [Example 96, N-(6-([1,2,4] Triazolo[4,3-a]pyridin-6-yl)-2-methoxypyridin-3-yl)-5-methyl-3-phenylisoxazole-4-carboxamide]"
,1.7,−0.68,,,"COc1nc(-c2ccnnc2)ccc1NC(=O)c1c(-c2ccccc2)noc1C [Example 104, N-(2-Methoxy-6-(pyridazin-4-yl)pyridin-3-yl)-5-methyl-3-phenylisoxazole-4-carboxamide]"
,1.5,−0.53,,,"COc1cc(-c2cccc3nccn23)cnc1NC(=O)c1c(-c2ccccc2)noc1C [Example 29, N-(5-Imidazo[1,2-a]pyridin-5-yl-3-methoxy-2-pyridyl)-5-methyl-3-phenyl-isoxazole-4-carboxamide]"
,1.4,−0.66,,,"COc1nc(-c2cncc(C(=O)N(C)C)c2)ccc1NC(=O)c1c(-c2ccccc2)noc1C [Example 95, N-(5′-(Dimethylcarbamoyl)-6-methoxy-[2,3′-bipyridin]-5-yl)-5-methyl-3-phenyl-isoxazole-4-carboxamide]"
,1.3,−0.92,,,"COc1nc(-c2cnc(C(=O)O)nc2)ccc1NC(=O)c1c(-c2ccccc2)noc1C [Example 60, 5-[6-Methoxy-5-[(5-methyl-3-phenyl-isoxazole-4-carbonyl)amino]-2-pyridyl]pyrimidine-2-carboxylic acid]"
,1,,,−0.42,"COc1nc(-c2cnccc2N)ccc1NC(=O)c1c(-c2ccccc2)noc1C [Example 78, N-(4′-Amino-6-methoxy-[2,3′-bipyridin]-5-yl)-5-methyl-3-phenylisoxazole-4-carboxamide]"
−0.92,0.7,,,,"COc1nc(-c2cnc(NCCN(C)C)nc2)ccc1NC(=O)c1c(-c2ccccc2)noc1C [Example 167, N-[6-[2-[2-(Dimethylamino)ethylamino]pyrimidin-5-yl]-2-methoxy-3-pyridyl]-5-methyl-3-phenyl-isoxazole-4-carboxamide]"
